The numbers were not newly measured in patent publication US20240173272A1 (LUPIN ATLANTIS HOLDINGS SA, priority 2021, published 2024), which cites them from elsewhere.

SMILES strings stand for the structures.

For series [1] the following is noted: oral administration.
The conditions of series [2]: weak base.

Regarding `Cc1cccc(C)c1OCC(C)N` (centres unmarked) [Mexiletine], in series [1], the bioavailability result was “about 90%”. In series [2], the pKa entry is given as “about 9.1”.
